This is an account of results in paper PMC5914168 (ChemMedChem, 2017).

Read-outs that look alike come from different tables or passages of the source. Some results are limits rather than exact numbers.

The term Ki denotes a dissociation constant, usually derived from enzyme kinetics or from competition with a known ligand.

Test [1] addresses BMP2K kinase domain (38-345) (Homo sapiens, UniProt Q9NSY1). In words: TR-FRET ligand binding displacement assay, BMP2K.
The target of test [2] is AAK1 kinase domain (31-396) (Homo sapiens, UniProt Q2M2I8). In words: TR-FRET ligand binding displacement assay, AAK1. In general terms: Time-resolved FRET reads energy transfer from a long-lived donor to a nearby acceptor.
In test [3] the target is STK16 kinase domain (13-305) (Homo sapiens, UniProt O75716). In words: TR-FRET ligand binding displacement assay, STK16.
Test [4] deals with T1, GAK kinase domain (12-347) (Homo sapiens, UniProt O14976).
T1 sequence (O14976 12-347): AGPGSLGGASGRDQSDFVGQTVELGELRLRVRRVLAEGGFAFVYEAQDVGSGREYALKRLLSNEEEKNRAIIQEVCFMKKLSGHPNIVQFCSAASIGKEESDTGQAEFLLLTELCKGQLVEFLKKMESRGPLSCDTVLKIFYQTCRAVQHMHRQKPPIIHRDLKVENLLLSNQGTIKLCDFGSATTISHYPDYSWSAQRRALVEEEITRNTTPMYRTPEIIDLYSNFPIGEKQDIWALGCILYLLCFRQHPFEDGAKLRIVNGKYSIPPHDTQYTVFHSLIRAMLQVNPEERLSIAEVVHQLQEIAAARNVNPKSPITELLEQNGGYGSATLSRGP
Nature of the test: TR-FRET ligand binding displacement assay, GAK. To be noted: for fold drop in GAK potency: relative to 1; for NAK selectivity (ratio of GAK Ki and Ki of nearest NAK family member): selectivity against the nearest NAK family member.

The mark [5] stands for this setting: read-out: Binding displacement assay Ki BMP2K, TR-FRET, 16-point dose response.

STK16 kinase domain (13-305), sequence (O75716 13-305): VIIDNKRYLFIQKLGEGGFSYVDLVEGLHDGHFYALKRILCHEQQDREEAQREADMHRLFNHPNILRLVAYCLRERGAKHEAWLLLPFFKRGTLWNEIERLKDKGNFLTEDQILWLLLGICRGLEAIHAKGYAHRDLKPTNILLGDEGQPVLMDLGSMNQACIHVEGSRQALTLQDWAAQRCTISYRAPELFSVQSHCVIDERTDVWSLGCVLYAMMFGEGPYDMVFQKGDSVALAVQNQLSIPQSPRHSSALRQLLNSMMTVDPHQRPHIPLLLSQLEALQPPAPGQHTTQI
AAK1 kinase domain (31-396), sequence (Q2M2I8 31-396): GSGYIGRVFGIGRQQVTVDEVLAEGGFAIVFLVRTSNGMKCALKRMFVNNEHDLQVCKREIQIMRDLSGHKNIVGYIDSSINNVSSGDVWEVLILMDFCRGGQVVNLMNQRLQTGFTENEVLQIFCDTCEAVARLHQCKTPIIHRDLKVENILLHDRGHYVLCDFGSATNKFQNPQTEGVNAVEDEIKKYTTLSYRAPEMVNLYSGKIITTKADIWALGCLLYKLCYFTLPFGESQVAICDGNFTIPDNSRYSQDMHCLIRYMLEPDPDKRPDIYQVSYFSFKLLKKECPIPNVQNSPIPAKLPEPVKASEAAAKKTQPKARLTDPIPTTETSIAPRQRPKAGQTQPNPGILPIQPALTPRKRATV
BMP2K kinase domain (38-345), sequence (Q9NSY1 38-345): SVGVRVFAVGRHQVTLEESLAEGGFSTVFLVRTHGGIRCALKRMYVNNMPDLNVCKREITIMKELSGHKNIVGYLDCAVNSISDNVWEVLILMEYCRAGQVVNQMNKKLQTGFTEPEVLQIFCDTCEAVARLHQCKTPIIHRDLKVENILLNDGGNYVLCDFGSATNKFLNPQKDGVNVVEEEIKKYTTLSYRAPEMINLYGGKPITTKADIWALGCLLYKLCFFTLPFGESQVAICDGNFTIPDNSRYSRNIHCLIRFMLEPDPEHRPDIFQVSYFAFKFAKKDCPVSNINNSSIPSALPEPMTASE

As for “6,7-Dimethoxy-N-(3,4,5-trimethoxyphenyl)quinolin-4-amine [Compound 57]”, in test [1] (setting [5]), the Ki stood at 19 µM.
Turning to `COc1cc(Nc2ccnc3ccc(C(F)(F)F)cc23)cc(OC)c1OC` [Compound 1, 6-(Trifluoromethyl)-N-(3,4,5-trimethoxyphenyl)quinolin-4-amine], the values for the inhibition constant (Ki) in test [2], in test [1] and in test [3] were 54 µM, over 100 µM and 17 µM, respectively.
Consider `COc1cc(Nc2ccnc3ccc(C(F)(F)F)cc23)cc(OC)c1` [Compound 4, N-(3,5-Dimethoxyphenyl)-6-(trifluoromethyl)quinolin-4-amine], for which the Ki came to 0.054 µM in test [4], 34 µM in test [2], 85 µM in test [1] and 52 µM in test [3]. In addition, in test [4], the “fold drop in GAK potency” value is reported as 10 fold. For the same compound, the “NAK selectivity (ratio of GAK Ki and Ki of nearest NAK family member)” value in test [4] worked out at 640.
In the case of `COc1ccc(Nc2ccnc3ccc(C(F)(F)F)cc23)cc1OC` [Compound 5, N-(3,4-Dimethoxyphenyl)-6-(trifluoromethyl)quinolin-4-amine], the inhibitory constant (Ki) in test [4] amounted to 0.058 µM; in test [2], 24 µM; in test [1], 44 µM; in test [3], 24 µM. For the same compound, in test [4], the “fold drop in GAK potency” value amounted to 10 fold. In addition, the “NAK selectivity (ratio of GAK Ki and Ki of nearest NAK family member)” value in test [4] was determined as 420.
Regarding `COc1ccc(Nc2ccnc3ccc(C(F)(F)F)cc23)c(OC)c1` [Compound 6, N-(2,4-Dimethoxyphenyl)-6-(trifluoromethyl)quinolin-4-amine], the inhibition constant Ki in test [4] was 0.86 µM; in test [2], 71 µM; in test [1] it was over 100 µM; in test [3], 70 µM. In addition, the “NAK selectivity (ratio of GAK Ki and Ki of nearest NAK family member)” value in test [4] is given as 81.
On to `COc1ccc(OC)c(Nc2ccnc3ccc(C(F)(F)F)cc23)c1` [Compound 7, N-(2,5-Dimethoxyphenyl)-6-(trifluoromethyl)quinolin-4-amine], for which the inhibition constant (Ki) in test [4] was 0.14 µM; in test [2], 80 µM; in test [1] it was over 100 µM; in test [3], 58 µM. Moreover, the “NAK selectivity (ratio of GAK Ki and Ki of nearest NAK family member)” value in test [4] turned out to be 420.
In the case of `COc1ccc(Nc2ccnc3ccc(C(F)(F)F)cc23)cc1` [Compound 8, N-(4-Methoxyphenyl)-6-(trifluoromethyl)quinolin-4-amine], the inhibitory constant (Ki) was determined as 0.73 µM in test [4], 56 µM in test [2], 75 µM in test [1] and 19 µM in test [3]. The “fold drop in GAK potency” value in test [4] turned out to be 100 fold. Also, the “NAK selectivity (ratio of GAK Ki and Ki of nearest NAK family member)” value in test [4] amounted to 26.
In test [1], `COc1ccccc1Nc1ccnc2ccc(C(F)(F)F)cc12` [Compound 10, N-(2-Methoxyphenyl)-6-(trifluoromethyl)quinolin-4-amine] returned a Ki of 11 µM.
For `FC(F)(F)c1ccc2nccc(Nc3ccc4c(c3)OCCO4)c2c1` [Compound 12, N-(2,3-Dihydrobenzo[b][1,4]dioxin-6-yl)-6-(trifluoromethyl)quinolin-4-amine], the “NAK selectivity (ratio of GAK Ki and Ki of nearest NAK family member)” value in test [4] is reported as 14. For the same compound, in test [1], the Ki is 56 µM.
For `COc1cc(Nc2ncnc3ccc(C(F)(F)F)cc23)cc(OC)c1OC` [Compound 13, 6-(Trifluoromethyl)-N-(3,4,5-trimethoxyphenyl)quinazolin-4-amine], the “NAK selectivity (ratio of GAK Ki and Ki of nearest NAK family member)” value in test [4] was 73.
Take `COc1cc(Nc2ncnc3ccc(C(F)(F)F)cc23)cc(OC)c1` [Compound 14, N-(3,5-Dimethoxyphenyl)-6-(trifluoromethyl)quinazolin-4-amine]: the “NAK selectivity (ratio of GAK Ki and Ki of nearest NAK family member)” value in test [4] was determined as 26. In addition, the Ki in test [2] (read-out: Binding displacement assay Ki AAK1, TR-FRET, 16-point dose response) was over 100 µM; in test [1] (setting [5]) it was over 100 µM; in test [3] (read-out: Binding displacement assay Ki STK16, TR-FRET, 16-point dose response), 8 µM.
`COc1ccc(Nc2ncnc3ccc(C(F)(F)F)cc23)cc1` [Compound 15, N-(4-Methoxyphenyl)-6-(trifluoromethyl)quinazolin-4-amine]: in test [4], the “NAK selectivity (ratio of GAK Ki and Ki of nearest NAK family member)” value was determined as 1.5. In addition, the inhibition constant Ki in test [1] was over 100 µM.
For `CS(=O)(=O)c1cccc(Nc2ccnc3ccc(C(F)(F)F)cc23)c1` [Compound 37, N-(3-(Methylsulfonyl)phenyl)-6-(trifluoromethyl)quinolin-4-amine], the “STK16 affinity relative to GAK” value in test [3] is recorded as at most 2 fold.
Consider `CC(C)(C)Oc1ccc(Nc2ccnc3ccc(C(F)(F)F)cc23)cc1` [Compound 39, N-(4-(tert-Butoxy)phenyl)-6-(trifluoromethyl)quinolin-4-amine], for which the “range of affinity across all four NAK family kinases” value in test [4] (GAK, AAK1, BMP2K, STK16) is given as at most 8 fold.
With `COc1cc(Nc2ccnc3ccc(F)cc23)cc(OC)c1OC` [Compound 42, 6-Fluoro-N-(3,4,5-trimethoxyphenyl)quinolin-4-amine], the Ki in test [2] was 83 µM; in test [1], over 100 µM; in test [3], over 100 µM.
As for `COc1cc(Nc2ccnc3cc(F)ccc23)cc(OC)c1OC` [Compound 43, 7-Fluoro-N-(3,4,5-trimethoxyphenyl)quinolin-4-amine], the Ki in test [2] was 44 µM; in test [1], over 100 µM; in test [3], over 100 µM.
Regarding `COc1cc(Nc2ccnc3ccc(S(C)(=O)=O)cc23)cc(OC)c1OC` [Compound 47, 6-(Methylsulfonyl)-N-(3,4,5-trimethoxyphenyl)quinolin-4-amine], the Ki in test [1] is over 100 µM.
Turning to `COc1ccc2nccc(Nc3cc(OC)c(OC)c(OC)c3)c2c1` [Compound 48, 6-Methoxy-N-(3,4,5-trimethoxyphenyl)quinolin-4-amine], the Ki in test [2], in test [1] and in test [3] was over 100 µM in each case.
`COc1ccc2c(Nc3cc(OC)c(OC)c(OC)c3)ccnc2c1` [Compound 50, 7-Methoxy-N-(3,4,5-trimethoxyphenyl)quinolin-4-amine]: the “NAK selectivity (ratio of GAK Ki and Ki of nearest NAK family member)” value in test [4] amounted to 22000. The figures for the Ki in test [2], in test [1] and in test [3] were 58 µM, over 100 µM and over 100 µM, respectively.
Take `COc1cc(Nc2ccnc3cc(C(F)(F)F)ccc23)cc(OC)c1OC` [Compound 51, 7-(Trifluoromethyl)-N-(3,4,5-trimethoxyphenyl)quinolin-4-amine]: the “NAK selectivity (ratio of GAK Ki and Ki of nearest NAK family member)” value in test [4] is given as 15000.
`COc1cc(Nc2ccnc3cc(C#N)ccc23)cc(OC)c1OC` [Compound 52, 4-((3,4,5-Trimethoxyphenyl)amino)quinoline-7-carbonitrile]: the “NAK selectivity (ratio of GAK Ki and Ki of nearest NAK family member)” value in test [4] is listed as 9300. In test [1], this compound yielded a Ki of over 100 µM.
Turning to `C#Cc1cccc(Nc2ccnc3cc(OC)c(OC)cc23)c1` [Compound 55, N-(3-Ethynylphenyl)-6,7-dimethoxyquinolin-4-amine], the inhibitory constant (Ki) was 0.0035 µM in test [4], 0.9 µM in test [2], 2.4 µM in test [1] and 19 µM in test [3]. Also, the “NAK selectivity (ratio of GAK Ki and Ki of nearest NAK family member)” value in test [4] amounted to 260.
As for `COc1cc2nccc(Nc3cccc(C(C)=O)c3)c2cc1OC` [Compound 56, 1-(3-((6,7-dimethoxyquinolin-4-yl)amino)phenyl)ethan-1-one], the inhibitory constant (Ki) in test [4] is 0.4 µM; in test [2], 0.26 µM; in test [1], 0.68 µM; in test [3], 1.5 µM. Further, the “fold reduction in GAK activity” value in test [4] (relative to 49) came out at 100 fold.
